Where a SMILES comes first, the peptide text is derived from it. Bridges are numbered along the chain shown (N, C = ends). Roman numbers before positions name the chains, in order. [ ]: non-standard residue; d: D form. The star is where a group is joined. NαAmidinoTrp = N=C(N)N[C@@H](Cc1c[nH]c2ccccc12)C(=O)*; Tle = CC(C)(C)[C@H](N)C(=O)O; dDab = NCC[C@@H](N)C(=O)O; Nle = CCCC[C@H](N)C(=O)O; Orn = NCCC[C@H](N)C(=O)O; Dab = NCC[C@H](N)C(=O)O; dAze = O=C(O)[C@H]1CCN1; Sar = CNCC(=O)O
Legend:
Assay type in all cases: cell-based
[1] = tested on: Acinetobacter baumannii 872842; settings: 872842
[2] = tested on: Acinetobacter baumannii DSM 30008; settings: DSM 30008
Procedure, shortened: (§1)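 CLSI broth microdilution in cation-adjusted Mueller-Hinton II broth with 0.002% Polysorbate 80, inoculum appr. 10^6 CFU/mL, peptides in serial two-fold dilutions. MIC (μg/mL) is the lowest concentration with no visible growth after 18-20 hours at 35° C.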

Escherichia coli 926415 = settings: 926415
[3] = tested on: Escherichia coli ATCC 25922; settings: ATCC 25922
Procedure, shortened: as §1

[4] = tested on: Klebsiella pneumoniae 968733; settings: 968733
[5] = tested on: Klebsiella pneumoniae SSI #3010; settings: SSI #3010
Procedure, shortened: as §1

[6] = tested on: Pseudomonas aeruginosa ATCC 27853; settings: ATCC 27853
Procedure, shortened: as §1

[7] = tested on: human red blood cells (hRBC); assay: Hemolysis of human red blood cells; settings: red cells of human, 1 h
Procedure, shortened: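 Hemolysis was read as supernatant absorbance at 540 nm and expressed as a percentage of Triton X-100 (2.5%) lysis. Washed human red cells (20% v/v) had been exposed to each peptide at 100 μg/mL for 1 h at 37° C.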

Row | SMILES | Acinetobacter baumannii 872842 MIC [1] | Acinetobacter baumannii DSM 30008 MIC [2] | Escherichia coli 926415 MIC (Escherichia coli 926415) | Escherichia coli ATCC 25922 MIC [3] | Klebsiella pneumoniae 968733 MIC [4] | Klebsiella pneumoniae SSI #3010 MIC [5] | Pseudomonas aeruginosa ATCC 27853 MIC [6] | Hemolysis at 100 μg/mL ([7]; 100 μg/mL) | Hemolysis at 100 μg/mL [7]; 100
1 | CCCC[C@@H]1NC(=O)[C@@H]2CCCN2C(=O)[C@H]2CCCN2C(=O)[C@H](CO)NC(=O)[C@H](C)NC(=O)[C@H](C(C)(C)C)NC(=O)[C@H](CCN)NC(=O)[C@H](Cc2c[nH]c3ccccc23)NC(=O)[C@@H](NC(C)=O)CSSC[C@@H](C(N)=O)NC(=O)[C@H](CCC(=O)N[C@H](CCN)C(=O)N[C@H]2CCNC(=O)[C@H]([C@@H](C)O)NC(=O)[C@H](CCN)NC(=O)[C@H](CCN)NC(=O)[C@H](CC(C)C)NC(=O)[C@@H](Cc3ccccc3)NC(=O)[C@H](CCN)NC2=O)NC(=O)[C@H](CCN)NC(=O)[C@H](Cc2ccc(O)cc2)NC(=O)[C@H](CO)NC1=O [Ex. 194] (I: Ac-CW[Dab][Tle]AS[dP]P[Nle]SY[Dab]EC-NH2 / II: [dDab][Dab][Dab][dF]L[Dab][Dab]T; disulfide I:1-I:14; amide I:13-II:N; lactam II:2-II:C) | 2 µg/mL | 0.5 µg/mL | 1 µg/mL | 0.25 µg/mL | 2 µg/mL | 0.5 µg/mL | 2 µg/mL | <1% | 
2 | CCCC[C@@H]1NC(=O)[C@@H]2CCCN2C(=O)[C@H]2CCCN2C(=O)[C@H](CO)NC(=O)[C@H](C)NC(=O)[C@H](C(C)(C)C)NC(=O)[C@H](CCN)NC(=O)[C@H](Cc2c[nH]c3ccccc23)NC(=O)[C@H](CCN)NC(=O)[C@@H](CCC(=O)N[C@@H](CCN)C(=O)N[C@H]2CCNC(=O)[C@H]([C@@H](C)O)NC(=O)[C@H](CCN)NC(=O)[C@H](CCN)NC(=O)[C@H](CC(C)C)NC(=O)[C@@H](Cc3ccccc3)NC(=O)[C@H](CCN)NC2=O)NC(=O)[C@H](CCCN)NC(=O)[C@H](CCN)NC(=O)[C@H](Cc2ccc(O)cc2)NC(=O)[C@H](CO)NC1=O [Ex. 2] (I: cyclo([Nle]SY[Dab][Orn][dE][Dab]W[Dab][Tle]AS[dP]P) / II: [Dab][Dab][Dab][dF]L[Dab][Dab]T; amide I:6-II:N; lactam II:2-II:C) | 2 µg/mL | 1 µg/mL | 2 µg/mL | 0.5 µg/mL | 4 µg/mL | 1 µg/mL | 0.25 µg/mL |  | 1%
3 | CCCC[C@@H]1NC(=O)[C@@H]2CCCN2C(=O)[C@H]2CCCN2C(=O)[C@H](CO)NC(=O)[C@H](CO)NC(=O)[C@H](C(C)(C)C)NC(=O)[C@H](CCN)NC(=O)[C@H](Cc2c[nH]c3ccccc23)NC(=O)[C@@H](N)CSSC[C@@H](C(=O)N[C@@H](C(=O)N[C@H](CCN)C(=O)N[C@H]2CCNC(=O)[C@H]([C@@H](C)O)NC(=O)[C@H](CCN)NC(=O)[C@H](CCN)NC(=O)[C@H](CC(C)C)NC(=O)[C@@H](Cc3ccccc3)NC(=O)[C@H](CCN)NC2=O)[C@H](C)O)NC(=O)[C@H](CCCN)NC(=O)[C@H](CCN)NC(=O)[C@H](Cc2ccc(O)cc2)NC(=O)[C@H](CO)NC1=O [Ex. 204] (H-CW[Dab][Tle]SS[dP]P[Nle]SY[Dab][Orn]C[dT][dDab][Dab][Dab][dF]L[Dab][Dab]T; disulfide 1-14; lactam 17-C) | 0.25 µg/mL | 0.5 µg/mL | 0.125 µg/mL | 0.25 µg/mL | 0.5 µg/mL | 0.25 µg/mL | 0.5 µg/mL | 3% | 
4 | CCCC[C@@H]1NC(=O)[C@@H]2CCCN2C(=O)[C@H]2CCCN2C(=O)[C@H](CO)NC(=O)[C@H](C)NC(=O)[C@H](C(C)(C)C)NC(=O)[C@@H](NC(=O)[C@H](Cc2c[nH]c3ccccc23)NC(C)=O)CSSC[C@@H](C(=O)N[C@@H](CCN)C(=O)NCC(=O)N[C@H](C(=O)N[C@@H](CCN)C(=O)N[C@H]2CCNC(=O)[C@H]([C@@H](C)O)NC(=O)[C@H](CCN)NC(=O)[C@H](CCN)NC(=O)[C@H](CC(C)C)NC(=O)[C@@H](Cc3ccccc3)NC(=O)[C@H](CCN)NC2=O)[C@@H](C)O)NC(=O)[C@H](Cc2ccc(O)cc2)NC(=O)[C@H](CO)NC1=O [Ex. 31] (Ac-WC[Tle]AS[dP]P[Nle]SYC[Dab]GT[Dab][Dab][Dab][dF]L[Dab][Dab]T; disulfide 2-11; lactam 16-C) | 1 µg/mL | 0.125 µg/mL | 1.5 µg/mL | 0.5 µg/mL | 0.75 µg/mL | 0.25 µg/mL | 1 µg/mL | 2% | 
5 | CCCC[C@@H]1NC(=O)[C@@H]2CCCN2C(=O)[C@H]2CCCN2C(=O)[C@H](CO)NC(=O)[C@H](CO)NC(=O)[C@H](C(C)(C)C)NC(=O)[C@H](CCN)NC(=O)[C@H](Cc2c[nH]c3ccccc23)NC(=O)[C@@H](N)CSSC[C@@H](C(=O)N[C@@H](CCC(N)=O)C(=O)N[C@H](CCN)C(=O)N[C@H]2CCNC(=O)[C@H]([C@@H](C)O)NC(=O)[C@H](CCN)NC(=O)[C@H](CCN)NC(=O)[C@H](CC(C)C)NC(=O)[C@@H](Cc3ccccc3)NC(=O)[C@H](CCN)NC2=O)NC(=O)[C@H](CCCN)NC(=O)[C@H](CCN)NC(=O)[C@H](Cc2ccc(O)cc2)NC(=O)[C@H](CO)NC1=O [Ex. 203] (H-CW[Dab][Tle]SS[dP]P[Nle]SY[Dab][Orn]CQ[dDab][Dab][Dab][dF]L[Dab][Dab]T; disulfide 1-14; lactam 17-C) | 0.5 µg/mL | 2 µg/mL | 0.25 µg/mL | 0.5 µg/mL | 4 µg/mL | 1 µg/mL | 1 µg/mL | <1% | 
6 | CC(C)C[C@@H]1NC(=O)[C@@H](CC(C)C)NC(=O)[C@H](CCN)NC(=O)[C@@H](NC(=O)[C@H](CCN)NC(=O)[C@@H](NC(=O)[C@H](CCN)NC(=O)[C@@H](C)NC(=O)[C@@H]2CSSC[C@H](NC(=O)[C@H](Cc3c[nH]c4ccccc34)NC(=N)N)C(=O)N[C@@H](C(C)C)C(=O)N[C@@H](C)C(=O)N[C@@H](CO)C(=O)N3CCC[C@@H]3C(=O)N3CCC[C@H]3C(=O)N[C@@H](CC(C)C)C(=O)N[C@@H](CO)C(=O)N[C@@H](Cc3ccc(O)cc3)C(=O)N2)[C@@H](C)O)CCNC(=O)[C@H]([C@@H](C)O)NC(=O)[C@H](CCN)NC(=O)[C@H](CCN)NC1=O [Ex. 135] (NαAmidinoTrp-CVAS[dP]PLSYC[dA][Dab]T[Dab][Dab][Dab][dL]L[Dab][Dab]T; disulfide 1-10; lactam 15-C) | 0.5 µg/mL | 0.25 µg/mL | 1 µg/mL | 0.125 µg/mL | 8 µg/mL | 0.5 µg/mL | 0.5 µg/mL | 1% | 
7 | CC[C@H](C)[C@@H]1NC(=O)[C@@H]2CCCN2C(=O)[C@H]2CCCN2C(=O)[C@H](Cc2ccc(O)cc2)NC(=O)[C@@H](NC(=O)[C@@H](NC(=O)[C@H](CCN)NC(=O)[C@@H](N)CC(C)C)C(C)C)CSSC[C@@H](C(=O)N[C@@H](Cc2ccc(O)cc2)C(=O)N[C@@H](CCN)C(=O)N(C)CC(=O)N[C@@H](CCN)C(=O)N[C@H](C(=O)N[C@@H](CCN)C(=O)N[C@H]2CCNC(=O)[C@H]([C@@H](C)O)NC(=O)[C@H](CCN)NC(=O)[C@H](CCN)NC(=O)[C@H](CC(C)C)NC(=O)[C@@H](CC(C)C)NC(=O)[C@H](CCN)NC2=O)[C@@H](C)O)NC1=O [Ex. 170] (H-L[Dab]VCY[dP]PICY[Dab][Sar][Dab]T[Dab][Dab][Dab][dL]L[Dab][Dab]T; disulfide 4-9; lactam 16-C) | 0.125 µg/mL | 1 µg/mL | 0.25 µg/mL | 0.5 µg/mL | 0.5 µg/mL | 1 µg/mL | 0.5 µg/mL | 1% | 
8 | CC(C)C[C@@H]1NC(=O)[C@@H](CC(C)C)NC(=O)[C@H](CCN)NC(=O)[C@@H](NC(=O)[C@H](CCN)NC(=O)[C@@H](NC(=O)[C@H](CCN)NC(=O)CC[C@@H]2NC(=O)[C@H](CCN)NC(=O)[C@H](Cc3ccc(O)cc3)NC(=O)[C@@H]3CCNC(=O)C[C@H](NC(=O)[C@H](C(C)(C)C)NC(=O)[C@H](CCN)NC(=O)[C@H](Cc4c[nH]c5ccccc45)NC(=O)[C@H](CCN)NC(=O)[C@@H](CCN)NC2=O)C(=O)N[C@@H]([C@@H](C)O)C(=O)N2CC[C@@H]2C(=O)N2CCC[C@H]2C(=O)N[C@@H](C(C)C)C(=O)N3)[C@@H](C)O)CCNC(=O)[C@H]([C@@H](C)O)NC(=O)[C@H](CCN)NC(=O)[C@H](CCN)NC1=O [Ex. 87] (I: cyclo(W[Dab][Tle]DT[dAze]PV[Dab]Y[Dab]E[dDab][Dab]) / II: [Dab]T[Dab][Dab][Dab][dL]L[Dab][Dab]T; lactam I:4-I:9, II:4-II:C; amide I:12-II:N) | 0.5 µg/mL | 0.25 µg/mL | 0.125 µg/mL | 0.125 µg/mL | 0.25 µg/mL | 0.25 µg/mL | 0.25 µg/mL |  | <1%
